We go through one compound from patent US20250144250A1, “PH-SENSITIVE FLUOROPHORES” (The General Hospital Corporation, priority 2022, published 2025).

Assay [1] concerns peritoneal dissemination of ID8 ovarian cancer. The experiment in a line: Preclinical intraoperative fluorescence-guided surgery. The class given is in vivo, mice. The conditions noted are these: FGS 4 h post-injection, 20 nmol. How it is done: Preclinical intraoperative fluorescence-guided surgery: We performed preclinical fluorescence-guided surgery (FGS) in mice with peritoneal dissemination of ID8 ovarian cancer using the FLARE imaging system. We injected 20 nmol of PH08 in 100 μL of 5% wt/v BSA/saline into the mouse intraperitoneally 4 h prior to the surgery. The abdominal cavity was opened with a midline incision under isoflurane inhalational anesthesia. The entire abdominal cavity was examined carefully by a surgeon using color and fluorescent imaging on the FLARE imaging system. Peritoneal dissemination was resected under white light assisted with the color and fluorescent images.
Evaluation of in vivo efficacy of NIR fluorophores for fluorescence-guided surgery (FGS): Having confirmed the pH sensitivity and tumor cell uptake of PH08 in vitro, we next evaluated the in vivo performance of the pH sensing NIR fluorophores in a mouse model of ovarian cancer. […] In this model, approximately 12 week post-peritoneal injection of ID8 cells, numerous nodules were observed on the peritoneum. These small nodules (<1 mm) are extremely difficult to localize and visualize in the surgical field. Thus, this model was suitable to test the performance of this fluorophore. […] The signal of PH08 allowed for clear visualization of the lesions that measured 5 mm or less than 1 mm in diameter. […]

Assay [2] has as its system ID8 ovarian cancer tumor tissue. The experiment in a line: Histological analysis of tumor-targetability of the NIR fluorophore. In kind it is in vivo, mice. The conditions noted are these: frozen sections, 4 h post-injection of 20 nmol. How it is done: Histological analysis of tumor-targetability of the NIR fluorophore: To determine the tissue distribution of the NIR fluorophore, tumors and major organs were removed from ID8 ovarian cancer-bearing mice 4 h post-injection with 20 nmol of PH08 in 100 μL of 5% wt/v BSA/saline. The dissected tissues were trimmed and embedded in Tissue-Tek optimum cutting temperature (OCT) compound (Sakura Finetek, Torrance, CA) without a pre-fixation step, and the tissue block was frozen at −80° C. Ten-μm thick frozen sections were cut by a cryostat (Leica, Germany). The slides were subject to fluorescence analysis first, then stained for hematoxylin and eosin (H&E). Fluorescence and brightfield images were acquired on the 4-channel Nikon TE2000 epifluorescence microscope. Image acquisition and analysis were performed using IPLab software (Scanalytics, Fairfax, VA). […] Exposure times were adjusted to obtain a similar maximum fluorescence value for each fluorescence image. […] In order to validate the tumor-specific fluorescence signal, frozen sections including both tumor and adjacent normal tissues harvested from tumor-bearing mice were examined by fluorescence microscopy. […] The fluorescence signal was mostly seen on the top 3-4 layers of cells in the tumor tissue, of which the signal was found predominantly in the extracellular space and cytoplasm.

Molecules are shown by their SMILES.

For the compound `CCN1/C(=C/C=C2\CCCC(/C=C/C3=[N+](CC)c4ccccc4C3(C)C)=C2N2CCNCC2)C(C)(C)c2ccccc21` [PH08], the “outcome of FGS” value in assay [1] is “complete resection of metastatic nodules”. In addition, the “fluorescence signal in tissue sections” value in assay [2] was “detected throughout the tumor tissue with no substantial fluorescence signals in neighboring muscles”.
